Data as given in patent US9890189B2, “Gemcitabine prodrugs and uses thereof” (BoYen Therapeutics, Inc., priority 2012, dated 2018).

How the values were obtained:
[1] = In vitro metabolic conversion assay using human liver S9 fractions; type: in vitro ADME; details: 10 μM, 37° C., 60 minutes, LC/MS/MS; for Formation of Gemcitabine: not quantitatively monitored
Experimental: Method H: In Vitro Metabolic Conversion Assay Using Human Liver S9 Fractions
A representative sampling of prodrug compounds was incubated with human liver S9 fractions (Life Technologies Corporation) at 10 μM in duplicates. Incubations were carried out at 37° C. in a shaker water bath. Samples were taken at 0 and 60 minutes. Negative controls (without S9 fractions) and positive controls (7-ethoxycoumarin and 7-hydroxycoumarin) were run concurrently with the test articles in duplicates. All samples were analyzed using LC/MS/MS; depletion of the parent compounds and the formation of gemcitabine were monitored, though the latter was not quantitatively monitored.
After incubation with human liver S9 fractions for 60 minutes, depletion of each test compound was observed along with formation of gemcitabine as a metabolite.

[2] = test system: human HCT116 colorectal adenocarcinoma; test: Efficacy evaluation in HCT116 tumor cell xenograft model in nude mice; type: in vivo; details: female nude mice, subcutaneous HCT116 tumors, Day 14 vs control group
Experimental: Method I: Efficacy Evaluation in HCT116 Tumor Cell Xenograft Model in Nude Mice Compounds 17, 18, 19 and 32 were evaluated for oral activity against human HCT116 colorectal adenocarcinoma in female nude mice. For the treatment groups, the above compounds were given perorally in 15% Tween 80 at a dose of 20 mg/kg once daily for 14 days. As a reference group, gemcitabine was administered intraperitoneally at 160 mg/kg once every three days for 4 doses. A control group received only the vehicle on the same peroral schedule as that of the treatment groups. Treatment began on Day 1 in all groups of female nude mice (n=8) bearing subcutaneous tumors of ˜180 mm^3 in size; the study duration was 14 days. Treatment results were presented as Tumor Growth Inhibition (TGI) as a percentage of average tumor size of untreated mice in the control group at Day 14.

[3] = perorally in 15% Tween 80, 20 mg/kg once daily for 14 days

| Structure (SMILES) | % of Parent Remaining [1] [%] | Formation of Gemcitabine [1] | Tumor Growth Inhibition (TGI) [2, 3] [%] | Tumor Growth Inhibition (TGI) ([2]; intraperitoneally 160 mg/kg once every three days for 4 doses) [%] |
| --- | --- | --- | --- | --- |
| Nc1ccn([C@@H]2O[C@H](COC(=O)CCc3ccccc3)[C@@H](O)C2(F)F)c(=O)n1 [Compound 3, 4-Amino-1-[(2R,4R,5R)-3,3-difluoro-4-hydroxy-5-(3-phenylpropanoyloxymethyl)oxolan-2-yl]-1,2-dihydropyrimidin-2-one] | 1 | ✓ |  |  |
| Nc1ccn([C@@H]2O[C@H](COC(=O)CCCCC(=O)Nc3ccccc3)[C@@H](O)C2(F)F)c(=O)n1 [Compound 6, 4-Amino-1-[(2R,4R,5R)-5-((6-anilino-6-oxo-hexanoyloxy)methyl)-3,3-difluoro-4-hydroxy-oxolan-2-yl]-1,2-dihydropyrimidin-2-one] | 8 | ✓ |  |  |
| CCCCOC(=O)Nc1ccn([C@@H]2O[C@H](COC(=O)CCc3ccccc3)[C@@H](O)C2(F)F)c(=O)n1 [Compound 17, 4-(Butyloxycarbonylamino)-1-[(2R,4R,5R)-3,3-difluoro-4-hydroxy-5-(3-phenylpropanoyloxymethyl)oxolan-2-yl]-1,2-dihydropyrimidin-2-one] |  |  | 77.3 |  |
| CCCCOC(=O)Nc1ccn([C@@H]2O[C@H](COC(=O)CCc3cccnc3)[C@@H](O)C2(F)F)c(=O)n1 [Compound 18, 4-(Butyloxycarbonylamino)-1-[(2R,4R,5R)-3,3-difluoro-4-hydroxy-5-(3-(3-pyridyl)propanoyloxymethyl)oxolan-2-yl]-1,2-dihydro-pyrimidin-2-one] |  |  | 81.1 |  |
| CCCCOC(=O)Nc1ccn([C@@H]2O[C@H](COC(=O)CCC(=O)Nc3ccccc3)[C@@H](O)C2(F)F)c(=O)n1 [Compound 19, 1-[(2R,4R,5R)-5-((4-Anilino-4-oxo-butanoyloxy)methyl)-3,3-difluoro-4-hydroxy-oxolan-2-yl]-4-(butyloxycarbonylamino)-1,2-dihydro-pyrimidin-2-one] |  |  | 75.8 |  |
| CCCCCOC(=O)Nc1ccn([C@@H]2O[C@H](COC(=O)CCc3cccnc3)[C@@H](O)C2(F)F)c(=O)n1 [Compound 32, 1-[(2R,4R,5R)-3,3-Difluoro-4-hydroxy-5-(3-(3-pyridyl)-propanoyloxymethyl)oxolan-2-yl]-1,2-dihydro-4-(pentyloxycarbonylamino)-pyrimidin-2-one] |  |  | 86.7 |  |
| Nc1ccn([C@@H]2O[C@H](CO)[C@@H](O)C2(F)F)c(=O)n1 [gemcitabine] |  |  |  | 85.6 |

The next lines start with results.

| % of Parent Remaining [1] [%] | Formation of Gemcitabine [1] | Structure (SMILES) | Tumor Growth Inhibition (TGI) [2, 3] [%] | Tumor Growth Inhibition (TGI) ([2]; intraperitoneally 160 mg/kg once every three days for 4 doses) [%] |
| --- | --- | --- | --- | --- |
| 0 | ✓ | CCOC(=O)Nc1ccn([C@@H]2O[C@H](COC(=O)CCc3ccccc3)[C@@H](O)C2(F)F)c(=O)n1 [Compound 10, 1-[(2R,4R,5R)-3,3-Difluoro-4-hydroxy-5-(3-phenylpropanoyloxymethyl)oxolan-2-yl]-1,2-dihydro-4-(ethoxycarbonylamino)-pyrimidin-2-one] |  |  |
| 0 | ✓ | CCOC(=O)Nc1ccn([C@@H]2O[C@H](COC(=O)CCc3cccnc3)[C@@H](O)C2(F)F)c(=O)n1 [Compound 11, 1-[(2R,4R,5R)-3,3-Difluoro-4-hydroxy-5-(3-(3-pyridyl)-propanoyloxymethyl)oxolan-2-yl]-1,2-dihydro-4-(ethoxycarbonylamino)-pyrimidin-2-one] |  |  |
| 13 | ✓ | CCOC(=O)Nc1ccn([C@@H]2O[C@H](COC(=O)CCCCC(=O)Nc3ccccc3)[C@@H](O)C2(F)F)c(=O)n1 [Compound 13, 1-[(2R,4R,5R)-5-((6-Anilino-6-oxo-hexanoyloxy)methyl)-3,3-difluoro-4-hydroxy-oxolan-2-yl]-1,2-dihydro-4-(ethoxycarbonylamino)-pyrimidin-2-one] |  |  |
| 0 | ✓ | CCOC(=O)Nc1ccn([C@@H]2O[C@H](COC(=O)CCCCCCC(=O)Nc3ccccc3)[C@@H](O)C2(F)F)c(=O)n1 [Compound 14, 1-[(2R,4R,5R)-5-((8-Anilino-8-oxo-octanoyloxy)methyl)-3,3-difluoro-4-hydroxy-oxolan-2-yl]-1,2-dihydro-4-(ethoxycarbonylamino)-pyrimidin-2-one] |  |  |
| 0 | ✓ | CCOC(=O)Nc1ccn([C@@H]2O[C@H](CO)[C@@H](OC(=O)CCc3ccccc3)C2(F)F)c(=O)n1 [Compound 58, 1-[(2R,4R,5R)-3,3-Difluoro-5-hydroxymethyl-4-(3-phenylpropanoyloxy)oxolan-2-yl]-1,2-dihydro-4-(ethoxycarbonylamino)-pyrimidin-2-one] |  |  |
| 1 | ✓ | CCOC(=O)Nc1ccn([C@@H]2O[C@H](CO)[C@@H](OC(=O)CCc3cccnc3)C2(F)F)c(=O)n1 [Compound 59, 1-[(2R,4R,5R)-3,3-Difluoro-5-hydroxymethyl-4-(3-(3-pyridyl)propanoyloxy)oxolan-2-yl]-1,2-dihydro-4-(ethoxycarbonylamino)-pyrimidin-2-one] |  |  |
| 2 | ✓ | CCOC(=O)Nc1ccn([C@@H]2O[C@H](CO)[C@@H](OC(=O)CCCCCCC(=O)Nc3ccccc3)C2(F)F)c(=O)n1 [Compound 62, 1-[(2R,4R,5R)-4-(8-Anilino-8-oxo-octanoyloxy)-3,3-difluoro-5-hydroxymethyl-oxolan-2-yl]-1,2-dihydro-4-(ethoxycarbonylamino)-pyrimidin-2-one] |  |  |
